Values joined by “and” are separate entries in the source; they are usually repeats but may differ in a detail not shown here. Identical values can stand only once.
Legend:
[1] = biological target: T1, wild type mouse RyR2 (Mus musculus, UniProt E9Q401); assay: Time-lapse [Ca2+]ER assay in HEK-293 RyR2 R-CEPIA1er cells (RyR2 activity assay); format: cell-based; settings: 25 μM; for effect on RyR2 activity / [Ca2+]ER (in words): vs control 0.1 v/v% DMSO; for RyR2 activity: percentage from the control sample (100%), mean ± SEM;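 for all read-outs here: ER Ca2+ read as R-CEPIA1er fluorescence ratio F/F0 (F0 mean of initial 90 s, F mean of final 100 s), compared with vehicle-treated control wells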
T1 construct: expressed in transfected cells; host or cells: HEK-293 cells stably expressing WT RyR2 and R-CEPIA1er (gift of Dr. Takashi Murayama), induced with doxycycline

[2] = biological target: human NaV1.5 (Homo sapiens, UniProt Q14524); assay: FLIPR membrane potential assay on CHO NaV1.5 Duo cells (veratridine-induced); format: cell-based; settings: for NaV1.5 activity in CHO cells: 10 μM, percentage from the control sample (100%), mean ± SEM; for effect on NaV1.5 activity (in words): concentration range 0.1 to 100 μM
[3] = biological target: SERCA2 (Mus musculus, UniProt O55143); assay: Caffeine induced calcium release assay on live HL-1 cardiomyocytes; format: cell-based; settings: for activation of SERCA2 in HL-1: 10 μM, percentage from the control sample (100%), mean ± SEM; for EC50: 2 h preincubation, 10 mM caffeine, read-out: activation of SERCA2 in HL-1, EC50 (converted);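 for all read-outs here: Read-out: caffeine-evoked peak minus basal fluorescence (ΔF Caff) of cytoplasmic FLIPR Calcium 6 dye, recorded for 1 min, compared with Tyrode's solution plus 0.1 v/v% DMSO as control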
[4] = biological target: T2, SERCA2a (Mus musculus, UniProt O55143); assay: NADH-coupled ATPase assay on microsomal membrane vesicles from mouse heart ventricles (mouse SER); format: biochemical; settings: for effect on SERCA2a ATPase activity (in words) / ATPase activity of SERCA2a in mouse SER: 10 μM; for effect on SERCA2a ATPase activity (in words): mouse SER; for ATPase activity of SERCA2a in mouse SER: percentage from the control sample (100%), mean ± SEM; for EC50: kinetic rate of NADH–NAD+ conversion, Figure S10: 200 µM free Ca2+
T2 construct: from tissue; host or cells: adult mouse heart ventricles, microsomal membrane vesicles
Description: To this end, we tracked the rate of nicotinamide adenine dinucleotide (NADH) oxidation linked to ATP hydrolysis by observing changes in NADH fluorescence over time. This was done after addition of ATP to solutions containing microsomal membranes enriched with SER vesicles isolated from adult mouse heart ventricles (mouse SER). The NADH fluorescence decrease was recorded on a FlexStation 3 Multimode Microplate Reader. […] We detected the highest increase in ATPase activity (up to 118%), when the vesicles were treated with borate complex 11–13 (Table ). We tested compounds 11–13 in the NADH assay buffer to see whether these compounds could contribute to the rate of NADH fluorescence reduction (Figures S7–S9). No significant deviations were found in the rate of NADH consumption compared to the control sample (0.1 v/v% DMSO).
Isolation of Microsomal Membrane Vesicles from mouse hearts was done according to procedure described earlier. All animal procedures were performed in accordance with national and institutional regulations.
Mouse ventricular microsomes (4–5 μg of total protein) were diluted in 100 μL of the assay buffer used for measurement of SERCA activity (described below) and incubated at room temperature for 10 min prior to the experiments. The measurements of SERCA2 activity were made at 25 °C by using a NADH -coupled ATPase assay as described in Radnai et al. with slight modifications. Briefly, the assay buffer contained 60 mM MOPS, 120 mM KCl, 6 mM MgCl2, 1 mM EGTA, 5 mM NaN3, 0.5 mM phosphoenolpyruvate and 0.67 mM CaCl2, pH 7.0. Before the reaction was started by the injection of 10 μL ATP (resulting in 2 mM final concentration in the well), 5 units/mL of both lactate dehydrogenase and pyruvate kinase, 0.5 mM NADH, and 1 μM Ca^2+ ionophore A-23187 (Sigma, C-7522) were added to the diluted sample with or without the tested compound (volume −150 μL). […] The NADH fluorescence decrease was recorded each 2 s for 5 min course on a FlexStation 3 Multi-Mode Microplate Reader in 96-well glass bottom plates (MatTek Corporation; Cat. No. PBK96G-1.5-5-F). Fluorescence was evoked by 380 nm excitation wavelength and collected in a bottom-read mode at 425 nm, cutoff–470 nm, 4 flashes per read. ATP was injected at 60 s, speed–125 μL/s, pipet height–140 μL. The data were analyzed with computer software GraphPad Prism version 8.3.1 (GraphPad Software, Inc.). The difference in signal decrease with and without microsomes was taken as an indicator for the additional ATPase activity performed by SERCA2. The obtained values for maximal SERCA2 activity were normalized for total protein concentration. Maximal SERCA2 activity values are reported as percentages of control (0.1% DMSO) values. Microsomal samples that were kept on ice until usage and set to 100%.

[5] = PermeaPad membrane permeability; format: in vitro ADME; settings: not told, room temperature, class low/medium in parentheses, read-out: P e (permeability rate)
Source text: We determined permeability rates (P e ), which are a measure of how fast a compound can cross a membrane, using cell-free transport models (PermeaPad, innoME GmbH) The CA derivatives have medium to low permeability rates in the range 1.0–24.0 nm/s (Table ). Similar to S36, despite poor permeability, compounds 2–4, 8, and 9 acted on live RyR2-HEK-293 R-CEPIA1er cells inhibiting RyR2. […] Since PermeaPad is an artificial model that primarily reflects passive diffusion, it is likely that additional mechanisms contribute to the crossing of cell membranes by these compounds.
Membrane permeability was assessed using PermeaPad Plate according to the manufacturing procedure (innoME GmbH, Espelkamp, Germany). Briefly, 200 μL (V A) water was added into acceptor plate. 200 μL (V D) of 100–500 μM test compound in water was added directly to the well membranes of the donor plate. The donor plate contains a biomimetic membrane for simulating passive mass transfer through different barriers in the body. Then the donor plate was placed into the acceptor plate wells and incubated at room temperature for 24 h in dark. To determine peak absorbance of test compounds, absorbance spectra of acceptor solutions and initial solutions for each test compound were read out. The Permeability Rate (P e) was calculated using the formula:
P e = C × −ln (1 – ODA/ODB) cm/s, where OD A is the absorbance of acceptor solution, OD B is the absorbance of the standard solution; if the compound is able to permeabilize the membrane and fully reach equilibrium, 250 μM will be the final concentration of solution in the donor and acceptor wells. The coefficient C was calculated using the formula: C=VD×VA/(VD+VA)×Area×time where V A–acceptor volume (cm^3), V D–donor volume (cm^3), membrane area 0.24 cm^2, time is 86,400 s.

Sequence of SERCA2 (O55143 1-994 limits assumed): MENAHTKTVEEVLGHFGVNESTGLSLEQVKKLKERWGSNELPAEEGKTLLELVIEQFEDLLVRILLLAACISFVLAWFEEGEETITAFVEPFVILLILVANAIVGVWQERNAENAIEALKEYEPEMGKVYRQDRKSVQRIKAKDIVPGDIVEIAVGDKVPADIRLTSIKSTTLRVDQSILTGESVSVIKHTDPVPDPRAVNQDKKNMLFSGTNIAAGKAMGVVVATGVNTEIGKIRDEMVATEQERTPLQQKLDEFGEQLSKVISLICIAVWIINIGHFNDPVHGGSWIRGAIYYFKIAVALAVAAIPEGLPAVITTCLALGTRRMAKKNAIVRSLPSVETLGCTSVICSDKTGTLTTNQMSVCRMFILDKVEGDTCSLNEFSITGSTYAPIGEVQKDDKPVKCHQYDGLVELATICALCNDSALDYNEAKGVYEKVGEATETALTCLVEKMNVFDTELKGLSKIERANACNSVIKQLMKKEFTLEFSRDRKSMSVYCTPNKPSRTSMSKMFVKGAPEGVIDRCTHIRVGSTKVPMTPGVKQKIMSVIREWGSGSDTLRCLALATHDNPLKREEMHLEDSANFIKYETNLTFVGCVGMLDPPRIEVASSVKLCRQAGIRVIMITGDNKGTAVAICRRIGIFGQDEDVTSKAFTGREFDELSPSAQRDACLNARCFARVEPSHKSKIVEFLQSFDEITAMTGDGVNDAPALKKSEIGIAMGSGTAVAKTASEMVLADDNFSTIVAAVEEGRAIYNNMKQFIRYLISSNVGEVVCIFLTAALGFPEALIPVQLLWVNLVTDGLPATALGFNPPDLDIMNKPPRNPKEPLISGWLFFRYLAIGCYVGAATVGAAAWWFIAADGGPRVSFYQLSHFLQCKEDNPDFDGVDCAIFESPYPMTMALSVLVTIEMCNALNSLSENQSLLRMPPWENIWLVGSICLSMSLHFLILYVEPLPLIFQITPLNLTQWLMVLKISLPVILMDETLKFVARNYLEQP
Sequence of human NaV1.5 (Q14524 1-460 limits assumed): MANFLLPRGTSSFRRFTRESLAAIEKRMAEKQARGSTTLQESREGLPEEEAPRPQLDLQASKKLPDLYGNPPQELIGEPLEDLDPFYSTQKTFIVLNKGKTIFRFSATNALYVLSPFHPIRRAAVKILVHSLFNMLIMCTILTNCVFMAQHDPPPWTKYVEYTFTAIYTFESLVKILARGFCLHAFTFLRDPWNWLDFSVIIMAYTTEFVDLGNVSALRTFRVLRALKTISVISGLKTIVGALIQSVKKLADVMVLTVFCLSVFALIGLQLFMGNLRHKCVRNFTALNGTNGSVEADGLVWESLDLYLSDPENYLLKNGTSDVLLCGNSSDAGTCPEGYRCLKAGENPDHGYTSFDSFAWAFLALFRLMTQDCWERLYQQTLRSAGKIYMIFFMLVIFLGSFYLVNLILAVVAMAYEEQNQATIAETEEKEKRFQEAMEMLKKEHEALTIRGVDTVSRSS
Sequence of human NaV1.5 (Q14524 661-1004 limits assumed): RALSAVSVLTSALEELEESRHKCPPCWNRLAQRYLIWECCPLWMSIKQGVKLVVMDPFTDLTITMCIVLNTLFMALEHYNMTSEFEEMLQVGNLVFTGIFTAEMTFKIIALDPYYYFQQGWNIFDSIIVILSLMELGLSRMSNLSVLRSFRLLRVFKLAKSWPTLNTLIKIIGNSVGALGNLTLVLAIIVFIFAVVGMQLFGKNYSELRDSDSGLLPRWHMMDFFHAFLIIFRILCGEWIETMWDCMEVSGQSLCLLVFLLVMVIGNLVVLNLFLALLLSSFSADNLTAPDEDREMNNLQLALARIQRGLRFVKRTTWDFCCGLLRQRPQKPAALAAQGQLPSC
Sequence of human NaV1.5 (Q14524 1142-2016 limits assumed): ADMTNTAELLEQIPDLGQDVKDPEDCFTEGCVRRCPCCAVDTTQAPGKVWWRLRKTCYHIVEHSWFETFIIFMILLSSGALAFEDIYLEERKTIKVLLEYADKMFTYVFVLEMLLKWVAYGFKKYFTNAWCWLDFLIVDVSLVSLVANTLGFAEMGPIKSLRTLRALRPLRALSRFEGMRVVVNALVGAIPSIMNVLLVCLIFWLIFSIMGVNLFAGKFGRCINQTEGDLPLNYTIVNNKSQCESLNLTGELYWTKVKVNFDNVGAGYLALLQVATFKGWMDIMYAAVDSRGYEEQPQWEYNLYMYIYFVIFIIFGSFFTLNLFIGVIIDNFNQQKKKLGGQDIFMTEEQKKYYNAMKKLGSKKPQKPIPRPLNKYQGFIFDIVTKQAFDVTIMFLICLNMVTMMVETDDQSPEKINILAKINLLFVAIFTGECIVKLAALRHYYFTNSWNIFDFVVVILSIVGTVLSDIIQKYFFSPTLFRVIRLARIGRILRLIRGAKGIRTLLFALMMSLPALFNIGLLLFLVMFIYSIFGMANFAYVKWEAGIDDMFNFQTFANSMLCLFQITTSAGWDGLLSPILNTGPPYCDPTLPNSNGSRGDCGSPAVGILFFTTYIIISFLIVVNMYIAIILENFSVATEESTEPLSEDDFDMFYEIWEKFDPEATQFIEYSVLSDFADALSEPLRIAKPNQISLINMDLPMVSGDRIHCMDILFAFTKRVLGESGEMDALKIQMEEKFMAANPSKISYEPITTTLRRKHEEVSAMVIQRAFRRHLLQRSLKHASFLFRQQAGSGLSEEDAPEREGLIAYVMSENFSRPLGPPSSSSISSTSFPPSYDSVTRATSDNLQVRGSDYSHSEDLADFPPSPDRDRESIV
T2 sequence (O55143 1-998 isoform O55143-2): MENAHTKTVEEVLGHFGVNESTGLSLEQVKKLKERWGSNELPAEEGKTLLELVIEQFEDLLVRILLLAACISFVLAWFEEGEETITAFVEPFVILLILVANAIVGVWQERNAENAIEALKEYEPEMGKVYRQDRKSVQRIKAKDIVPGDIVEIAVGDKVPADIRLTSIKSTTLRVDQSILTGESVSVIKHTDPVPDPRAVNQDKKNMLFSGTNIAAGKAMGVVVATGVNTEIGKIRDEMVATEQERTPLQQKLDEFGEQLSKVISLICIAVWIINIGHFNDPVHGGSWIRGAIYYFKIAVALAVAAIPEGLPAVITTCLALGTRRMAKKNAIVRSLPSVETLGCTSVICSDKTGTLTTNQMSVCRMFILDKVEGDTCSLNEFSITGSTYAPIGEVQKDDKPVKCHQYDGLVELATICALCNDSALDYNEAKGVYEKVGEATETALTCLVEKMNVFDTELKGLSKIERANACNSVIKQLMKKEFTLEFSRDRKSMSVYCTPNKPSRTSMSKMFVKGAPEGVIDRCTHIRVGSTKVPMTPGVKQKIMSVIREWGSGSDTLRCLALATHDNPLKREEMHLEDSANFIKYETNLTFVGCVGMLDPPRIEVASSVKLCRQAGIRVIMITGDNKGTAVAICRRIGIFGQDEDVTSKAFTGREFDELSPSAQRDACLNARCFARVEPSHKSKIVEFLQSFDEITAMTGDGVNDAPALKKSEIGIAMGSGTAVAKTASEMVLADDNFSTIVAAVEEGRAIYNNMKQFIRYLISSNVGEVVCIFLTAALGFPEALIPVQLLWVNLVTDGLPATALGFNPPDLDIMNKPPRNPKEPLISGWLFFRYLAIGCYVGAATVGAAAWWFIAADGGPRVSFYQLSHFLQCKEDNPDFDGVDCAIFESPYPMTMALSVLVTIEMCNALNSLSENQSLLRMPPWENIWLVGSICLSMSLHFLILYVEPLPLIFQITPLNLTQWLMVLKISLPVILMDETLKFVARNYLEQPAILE

| effect on RyR2 activity / [Ca2+]ER (in words) [1] | RyR2 activity [1] [%] | activation of SERCA2 in HL-1 [3] [%] | EC50 ([3]; HL-1 cells) | effect on SERCA2a ATPase activity (in words) [4] | ATPase activity of SERCA2a in mouse SER [4] [%] | Papp at 24 h [5] [×10⁻⁶ cm/s] | EC50 [4] | effect in caffeine-induced Ca2+ release assay relative to CDN1163 ([3]; HL-1 cardiomyocytes) [fold] | increase in the signaling response to caffeine stimulation compared to the control sample ([3]; HL-1 cells, maximal effect of the dose-response) | SMILES | concentration of maximal inhibition ([2]; positive control) [µM] | NaV1.5 activity in CHO cells [2] [%] | effect on NaV1.5 (in words) ([2]; 100 μM) | effect on NaV1.5 activity (in words) [2] | effect on NaV1.5 (in words) ([2]; 1 μM) | effect on NaV1.5 (in words) ([2]; 10–100 μM) |
| --- | --- | --- | --- | --- | --- | --- | --- | --- | --- | --- | --- | --- | --- | --- | --- | --- |
| increase in R-CEPIA1er fluorescence |  |  |  |  |  |  |  |  |  | O=C1CN(/N=C/c2ccc(-c3ccc([N+](=O)[O-])cc3)o2)C(O)=N1 [dantrolene, reference compound] |  |  |  |  |  |  |
|  |  |  |  |  |  |  |  |  |  | CCCCNc1ccc(C(=O)OCCN(C)C)cc1 [tetracaine, reference compound] | 100 |  |  |  |  |  |
| significantly increased [Ca^2+]ER | 102.2 ± 0.6 | 140.3 ± 6.4 | 1.4 µM | significant activation of SERCA2a ATPase | 110.8 ± 4.5 | 2.7 |  |  |  | COc1ccc2c(c1)CN(CCCCNC(=O)C(=O)NCCCCCCNC(=O)/C=C/c1ccc(O)c(O)c1)CCS2 [Compound 4] |  | 108.0 ± 1.6 | small but significant activating effect |  |  |  |
|  |  |  | 21 µM and 21.2 µM |  |  |  |  |  |  | Cc1ccc2cccc(NC(=O)c3ccc(OC(C)C)cc3)c2n1 [CDN1163, reference compound] |  |  | comparable to the maximal effect of tetracaine | blocked NaV1.5 |  |  |
|  | 100.1 ± 1.7 | 175.3 ± 7.2 | 1.9 µM |  | 109.8 ± 2.9 | 0.9 |  |  |  | COc1ccc2c(c1)CN(CCCCCCCCNC(=O)/C=C/c1ccc(O)c(O)c1)CCS2 [Compound 7] |  | 87.4 ± 1.1 |  | bell-shaped behavior | activating effect | inhibitory effect |
| RyR2 activators | 96.5 ± 0.4 | 161.5 ± 9.5 | 11 µM | significant activation of SERCA2a ATPase | 109.2 ± 3.6 | < 1 |  |  |  | COc1ccc(SCCCNC(=O)/C=C/c2ccc(O)c(O)c2)cc1 [Compound 2, (E)-3-(3,4-Dihydroxyphenyl)-N-(3-((4-methoxyphenyl)thio)propyl)acrylamide] |  | 89.7 ± 1.1 |  |  |  |  |
| significantly increased [Ca^2+]ER | 103.9 ± 0.8 | 277.8 ± 12.7 | 1.1 µM |  | 118.2 ± 2.5 | 0.4 | 0.0023 µM |  |  | COc1ccc2c(c1)CN(CCCCCC[NH+]([BH2-]C#N)C/C=C/c1ccc(O)c(O)c1)CCS2 (stereo not shown) [Compound 12] |  | 86.2 ± 2.6 |  |  |  |  |
| RyR2 activators | 95.0 ± 1.2 | 158.1 ± 2.4 | 7.6 µM |  | 110.5 ± 3.5 | 1.1 |  |  |  | COc1ccc2c(c1)CN(CCCCCCNC(=O)/C=C/c1ccc(O)c(O)c1)CCO2 [Compound 8] |  | 96.6 ± 3.6 |  |  |  |  |
| did not affect the RyR2 activity | 100.8 ± 0.7 | 267.3 ± 11.7 | 13.6 µM |  | 115.7 ± 4.0 | 2.6 | 0.03 µM and 0.0296 µM | 2.5 | up to 450% | COc1ccc2c(c1)CN(CCCC[NH+]([BH2-]C#N)C/C=C/c1ccc(O)c(O)c1)CCS2 (stereo not shown) [Compound 11] |  | 83.8 ± 1.7 |  |  |  |  |
| did not affect the RyR2 activity | 100.9 ± 0.8 |  |  | accelerated consumption of NADH | 108.5 ± 2.5 |  |  |  |  | O=C(O)C=Cc1ccc(O)c(O)c1 [CA, 3-(3,4-dihydroxyphenyl)-2-propenoic acid, reference compound] |  | 91.8 ± 2.4 |  | no effect on NaV1.5 activity |  |  |
| significantly increased [Ca^2+]ER | 102.1 ± 0.4 | 126.4 ± 13.0 | 47.6 µM |  | 112.3 ± 4.6 | 0.2 |  |  |  | COc1ccc2c(c1)CN(CCCCCCCCNC/C=C/c1ccc(O)c(O)c1)CCO2 [Compound 10] |  | 103.0 ± 1.4 |  | no effect on NaV1.5 |  |  |
| did not affect the RyR2 activity | 99.4 ± 0.4 | 235.4 ± 8.5 | 3.1 µM |  | 112.3 ± 3.5 | 0.9 |  |  |  | COc1ccc2c(c1)CN(CCCCCCNC(=O)/C=C/c1ccc(O)c(O)c1)CCS2 [Compound 6] |  | 88.8 ± 0.9 |  |  |  |  |

| SMILES | effect on RyR2 activity / [Ca2+]ER (in words) [1] | RyR2 activity [1] [%] | activation of SERCA2 in HL-1 [3] [%] | EC50 ([3]; HL-1 cells) | effect on SERCA2a ATPase activity (in words) [4] | ATPase activity of SERCA2a in mouse SER [4] [%] | Papp at 24 h [5] [×10⁻⁶ cm/s] | EC50 [4] | effect in caffeine-induced Ca2+ release assay relative to CDN1163 ([3]; HL-1 cardiomyocytes) [fold] | increase in the signaling response to caffeine stimulation compared to the control sample ([3]; HL-1 cells, maximal effect of the dose-response) | concentration of maximal inhibition ([2]; positive control) [µM] | NaV1.5 activity in CHO cells [2] [%] | effect on NaV1.5 (in words) ([2]; 100 μM) | effect on NaV1.5 activity (in words) [2] | effect on NaV1.5 (in words) ([2]; 1 μM) | effect on NaV1.5 (in words) ([2]; 10–100 μM) |
| --- | --- | --- | --- | --- | --- | --- | --- | --- | --- | --- | --- | --- | --- | --- | --- | --- |
| COc1ccc2c(c1)CN(C/C=C/C(=O)NNC(=O)/C=C/c1ccc(O)c(O)c1)CCS2 [Compound 3, (E)-N′-((E)-3-(3,4-Dihydroxyphenyl)acryloyl)-4-(7-methoxy-2,3-dihydrobenzo[1,4-f]thiazepin-4(5H)-yl)but-2-enehydrazide] | significantly increased [Ca^2+]ER | 101.7 ± 0.3 | 135.4 ± 3.8 | > 3 µM | did not evoke a significant increase in ATPase activity | 100.6 ± 2.5 | 3.4 |  |  |  |  | 94.8 ± 2.1 |  |  |  |  |
